Consider one compound from patent publication US12508323B2, “Method of treatment of colorectal, breast and lung cancer with metal containing immune agonist complexes” (HANGZHOU XINGAO BIOTECHNOLOGY CO., LTD., priority 2020, dated 2025).

One test has as its system amyloid plaques. Put plainly: Thioflavin S staining of brain amyloid plaques in AD mice. In kind it is in vivo. To be noted: 10 mg/kg i.p., 60 days of administration. As for the experimental part: Seven groups of AD mice in the above examples were tested in view of reduction of amyloid plaques in the brains of AD mice after 60 days of administration. The experiment was a thioflavin S staining experiment, and the experimental procedures were described below. 60 days after drug administration, brain tissue of mice was taken, fixed, embedded with paraffin, sectioned, de-waxed with xylene, dehydrated with ethanol gradient, and rinsed with TBS solution three times. After that, 0.3% thioflavin S (dissolved in 50% ethanol) was dropped on the tissue followed by incubation for 10 min at room temperature, rinsing with 50% ethanol three times, rinsing with TBS solution, drying in the shade, and sealing. Then the issue was examined by laser confocal microscopy (Leica, Germany) to detect the changes in the amount of amyloid plaque deposition in the brain of AD mice.

The test system of another test is OVA. Put plainly: Immune adjuvant function with OVA immunization (ELISA). In kind it is in vivo. To be noted: values of log2; s.c. 10 μg OVA + 100 μg adjuvant on days 1, 7, 14; sampled day 21; C57BL/6 mice. The method, then: Specific pathogen free (SPF)-grade C57BL/6 male mice, aged 7-8 weeks and weighing 20-22 g, were purchased from American Animals Inc. The aluminum adjuvant and OVA were purchased from Invitrogen company.
The mice were divided into 7 groups (10 mice in each group), namely, group A: OVA+cGAMP; group B: OVA+MncGAMP; group C: OVA+complex VIII; group D: OVA+complex IV; group E: OVA+complex VII; group F: OVA+aluminum adjuvant; and group G: OVA.
Each mouse was injected subcutaneously with 10 μg of OVA and 100 μg of aluminum adjuvant or a different species of cGAMP (or the immune agonist complex), and those not injected were negative control groups. Immunization was performed once on days 1, 7, and 14, respectively, and lung lavage fluid was obtained and blood samples taken on day 21. The potency of the immune agonist and the complex as adjuvants to induce nanobody production was determined by ELISA, and the results were shown in Table 7.

The subject of test [1] is murine breast cancer cell line 4T1-luc. Description: Anti-metastasis of murine breast cancer 4T1-luc, in vivo optical imaging. The note with it: 4T1-luc in BALB/C mice, i.p. 10 mg/kg (nanobody 200 μg/mouse) once a day, sites of metastasis. The method, then: Specific pathogen free (SPF)-grade BALB/C male mice, aged 7-8 weeks and weighing 20-22 g, were purchased from Shanghai Slac Laboratory Animal Co., Ltd (Laboratory animal quality certificate number: SCXK (Shanghai)2007-0005.
Mice were injected intraperitoneally with the immune agonist complex or MncGAMP with a dose of 10 mg/kg, or each injected intraperitoneally with 200 μg of the nanobody.
Administration route: intraperitoneal injection.
Frequency: once a day for consecutive 21 days.
Used herein was murine breast cancer cell line 4T1-luc (luciferase labeled tumor cells), which was provided by medical department of Zhejiang University School. The 4T1-luc cell line in BALB/C mice had similar growth and metastatic properties to breast tumors in humans, which was an animal model for […] breast cancer in humans. The 4T1-luc cell line spontaneously produced highly metastatic tumors that metastasize to the lung, liver, lymph nodes, and brain, while forming the primary site at the injection site. Luciferase was a general term for a class of enzymes in living organisms that catalyze the oxidative luminescence of luciferin or firefly aldehyde, which was derived from organisms naturally capable of luminescence.
Cancer cells were cultured, passaged, collected at the logarithmic phase of cells, and prepared into a cell suspension at a concentration of (1.0×10^7) per ml. Mice were injected with 0.2 ml of the cell suspension at the axilla of the right forelimb (2.0×10^6 cells/each), and were injected with drugs the day after inoculation with breast cancer cells. […]
Metastasis of murine breast cancer in mice was detected using a small animal in vivo optical imaging system (Perkin Elmer, IVIS Lumina XRMS Series III) on days 5, 10, 20, and 30 after drug administration, respectively, which was done at Shanghai Medical College of Fudan University.

The structures appear in SMILES notation.

On to `Nc1nc(=O)c2ncn(C3OC4COP(=O)(O)OC5C(COP(=O)(O)OC3C4O)OC(n3cnc4c(N)ncnc43)C5O)c2[nH]1` (stereo not drawn) [cGAMP, 2′3′-cGAMP], for which the “Average count points of fluorescence intensity of amyloid plaques in brain tissues of AD mice (field of view area)” value in the test with amyloid plaques was 1800 ± 160. For the same compound, in the test on OVA, the “Alveolar lavage fluid (IgA)” value came to 2.3 ± 0.2 and the “Serum (IgG)” value was determined as 17.5 ± 0.9. In test [1] (day 5 after drug administration), the “Metastasis of breast cancer, Day 5” value is on record as “No”. Also, the “Metastasis of breast cancer, Day 10” value in test [1] (day 10 after drug administration) is “No”. Further, the “Metastasis of breast cancer, Day 20” value in test [1] (day 20 after drug administration) was “No”.
